Results from patent US20260125686A1, “COMPOSITIONS AND METHODS FOR MODULATION OF CFTR” (Cystic Fibrosis Foundation, priority 2022, published 2026).

Target: Exon 22 truncated CFTR (Homo sapiens, UniProt P13569)
Assay: TECC-24 assay in 16HBEge-W1282X cells
Format: cell-based
Parameters: contain the first 1239 amino acids of a WT CFTR; endogenous in cells
Conditions: for FSK+VX-770 AUC/min: in combination SA-08 10 μM
Protocol: Electrophysiology. Clonal lines were seeded at a density of 4.5×10^5 cells cm-2 onto HTS Transwell 24-well filter inserts pre-coated with human collagen type IV. Cells were grown as submerged cultures in MEM (Gibco, 11095) containing 10% FBS and 1% Pen/Strep, and incubated at 37° C. and 5% CO2. Cells were treated from both the basolateral and apical side with fresh medium containing either control (vehicle) or test article for the treatment time indicated in the figure legends. After a total of 7 days, 16HBE cells typically formed electrically tight epithelia with a transepithelial resistance (Rt) of 200-600 Ω·cm2 and CFTR-mediated Cl— equivalent current (Ieq) was determined as described below.
Prior to functional (Ieq) studies, MEM was replaced with fresh HEPES-buffered (pH 7.4) solutions (assay buffer). A driving force for chloride ions was established through application of a basolateral to apical chloride ion gradient (see buffer composition below). Cell plates were mounted onto an automated robotic assay platform and equilibrated at ˜36° C. for 90 min. After equilibration, transepithelial voltage (Vt) and resistance (Rt) were monitored at ˜5 min intervals using a 24-channel transepithelial current clamp amplifier (TECC-24, EP Design, Bertem, Belgium). Electrode potential differences for each pair of Ag/AgCl voltage electrodes were also monitored at 5 min intervals by taking voltage measurements from a control plate with matching buffer solutions and 16HBE cells that were left untreated. Ieq was calculated from values of Vt and Rt using Ohm's law after correcting for series resistance and (electrode) voltage offsets unrelated to Vt. Ieq traces are plotted as mean±SD (n=3). The first 4 data points reflect baseline Ieq currents prior to sequential stimulation of CFTR with forskolin (10 μM) and VX-770/ivacaftor (1 μM). The last six data points were recorded in the presence of CFTR inhibitor CFTRinh-172 (20 μM). Agonists/antagonists were pre-diluted to 10-fold concentrations in assay buffer and add-ed to either the basolateral (forskolin) or apical (forskolin, VX-770/ivacaftor, and CFTRinh-172) side of the membrane (assay plates only). CFTR-mediated changes in Ieq, (i.e., delta forskolin, delta VX-770, delta CFTRinh-172, or the area under the curve (AUC) between forskolin and CFTRinh-172 addition) are used as a measure of functional CFTR surface expression or treatment-related functional rescue of mutant CFTR.
Assay buffer: CFTR-mediated transepithelial currents were recorded using a Cl— concentration gradient. The basolateral solution contained (mM): 137 NaCl, 4 KCl, 1.8 CaCl2, 1 MgCl2, 10 HEPES and D-Glucose, adjusted to pH 7.4 with NaOH/HCl ([CI-] total: 146.6 mM). The apical solution was matched to the basolateral except for (mM): 137 Na-gluconate replaced 137 NaCl ([Cl—] total: 9.6 mM).
The function of Exon 22 truncated CFTR protein was assayed by the transepithelial chloride conductance assay (TECC-24 assay), as depicted in FIG. 15A and FIG. 15B. 16HBEge-W1282X cells were incubated in 0.02% DMSO (vehicle) or VX445/VX661 prior to the TECC assay. Characteristic CFTR responses to forskolin, potentiator (VX-770), and CFTR inhibition (Inh-172) were recorded in the presence and absence of various doses and combinations of ASO treatments. […] ASO treatment further induced a larger chloride channel conductance compared to no ASO treatment.
The function of various CFTR proteins in the cells can be assessed by comparing the area under curve (AUC) of the induced chloride conductance obtained in the electrophysiology assays. The AUC of various mutant cell lines (e.g., 16HBEge-W1282X cells), with or without treatment, can be normalized to the AUC obtained from cells expressing WT CFTR protein and expressed as either a percentage of WT CFTR (% WT CFTR) or a ratio to WT CFTR (variant/WT CFTR). […]

Exon 22 truncated CFTR, sequence (P13569 with tags, fused parts or gaps): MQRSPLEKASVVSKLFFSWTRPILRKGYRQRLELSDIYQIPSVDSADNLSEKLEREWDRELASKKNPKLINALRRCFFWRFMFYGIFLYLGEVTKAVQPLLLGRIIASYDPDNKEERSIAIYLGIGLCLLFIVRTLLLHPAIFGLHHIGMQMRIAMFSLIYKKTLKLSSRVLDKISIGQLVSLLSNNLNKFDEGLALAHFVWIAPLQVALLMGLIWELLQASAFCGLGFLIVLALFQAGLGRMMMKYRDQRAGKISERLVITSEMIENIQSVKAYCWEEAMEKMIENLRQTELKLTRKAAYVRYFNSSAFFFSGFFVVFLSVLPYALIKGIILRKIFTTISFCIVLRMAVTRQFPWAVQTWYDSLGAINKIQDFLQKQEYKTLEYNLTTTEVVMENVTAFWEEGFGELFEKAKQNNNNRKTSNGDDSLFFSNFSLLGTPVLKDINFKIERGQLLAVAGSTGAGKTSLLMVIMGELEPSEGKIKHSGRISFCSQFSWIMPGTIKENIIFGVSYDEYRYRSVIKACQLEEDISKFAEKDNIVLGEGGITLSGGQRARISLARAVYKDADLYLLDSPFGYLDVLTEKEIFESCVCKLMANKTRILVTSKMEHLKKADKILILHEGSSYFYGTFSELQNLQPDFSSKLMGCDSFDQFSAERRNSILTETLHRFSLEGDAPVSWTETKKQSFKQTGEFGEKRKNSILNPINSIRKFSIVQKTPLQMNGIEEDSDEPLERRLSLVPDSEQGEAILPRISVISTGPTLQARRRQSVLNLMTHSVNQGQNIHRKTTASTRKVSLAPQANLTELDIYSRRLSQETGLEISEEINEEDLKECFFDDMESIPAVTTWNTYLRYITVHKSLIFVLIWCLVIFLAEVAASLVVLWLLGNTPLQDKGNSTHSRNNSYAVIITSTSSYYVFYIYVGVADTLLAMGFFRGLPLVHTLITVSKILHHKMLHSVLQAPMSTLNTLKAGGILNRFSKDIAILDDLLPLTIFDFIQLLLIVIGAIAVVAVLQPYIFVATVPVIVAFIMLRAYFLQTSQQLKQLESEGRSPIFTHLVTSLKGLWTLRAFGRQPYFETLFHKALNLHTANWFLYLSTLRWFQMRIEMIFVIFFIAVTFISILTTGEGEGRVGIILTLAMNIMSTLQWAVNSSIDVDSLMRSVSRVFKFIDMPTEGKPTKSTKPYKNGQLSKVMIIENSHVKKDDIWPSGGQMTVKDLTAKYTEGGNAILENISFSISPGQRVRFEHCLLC

Question: What does the source list for “aaagcaagcagtgttcaaatct (antisense AAAGCAAGCAGTGTTCAAATCT; all 2'-MOE, all phosphorothioate, methylation of C not given here) [SD10, PS backbone, 2′-MOE]”?
Answer: chloride conductance AUC, of WT (10 μM SD10, with Trikafta): about 9%; increase in AUC (of WT) (10 μM SD10, without Trikafta treatment): 2.9%; FSK+VX-770 AUC/min ((+) VX-445/VX-661 (3/3 μM), SD-10 100 μM): 11.5+/−0.5 μA/cm^2; FSK+VX-770 AUC/min ((+) VX-445/VX-661 (3/3 μM), SD-10 printed '(μM)' / 10 μM): 10.4+/−1.2 μA/cm^2; FSK+VX-770 AUC/min ((−) VX-445/VX-661, SD-10 100 μM): 4.6+/−0.4 μA/cm^2; FSK+VX-770 AUC/min ((−) VX-445/VX-661, SD-10 printed '(μM)' / 10 μM): 5.5+/−0.7 μA/cm^2

Question: Which “chloride conductance AUC, of WT” value (0.1 μM SA08, with Trikafta) does the source give for “ataaggtaaaagtgatgggatc (antisense ATAAGGTAAAAGTGATGGGATC; all 2'-MOE, all phosphorothioate, methylation of C not given here) [SA8, PS backbone, 2′-MOE]” here?
Answer: Its value is “about 3.1%”.

Question: And the “chloride conductance AUC, of WT” value (1 μM SA08, with Trikafta)?
Answer: Its value is about 4.9%.

Question: And the “chloride conductance AUC, of WT” value (2 μM SA08, with Trikafta)?
Answer: Its value is about 6.2%.

Question: With “elexacaftor/ivacaftor/tezacaftor [Trikafta]” as the substance, how does the “Ex22 truncated CFTR function, of WT CFTR function” value (Trikafta (3/3 μM VX-661/445 48 h, 3 μM VX-770), no ASO) read?
Answer: The value was about 3%.
